This assay deals with T1, human TrkA (Homo sapiens, UniProt P04629).
T1 construct: expressed in transfected cells; host or cells: AD293 cells
T1 sequence (P04629 33-796): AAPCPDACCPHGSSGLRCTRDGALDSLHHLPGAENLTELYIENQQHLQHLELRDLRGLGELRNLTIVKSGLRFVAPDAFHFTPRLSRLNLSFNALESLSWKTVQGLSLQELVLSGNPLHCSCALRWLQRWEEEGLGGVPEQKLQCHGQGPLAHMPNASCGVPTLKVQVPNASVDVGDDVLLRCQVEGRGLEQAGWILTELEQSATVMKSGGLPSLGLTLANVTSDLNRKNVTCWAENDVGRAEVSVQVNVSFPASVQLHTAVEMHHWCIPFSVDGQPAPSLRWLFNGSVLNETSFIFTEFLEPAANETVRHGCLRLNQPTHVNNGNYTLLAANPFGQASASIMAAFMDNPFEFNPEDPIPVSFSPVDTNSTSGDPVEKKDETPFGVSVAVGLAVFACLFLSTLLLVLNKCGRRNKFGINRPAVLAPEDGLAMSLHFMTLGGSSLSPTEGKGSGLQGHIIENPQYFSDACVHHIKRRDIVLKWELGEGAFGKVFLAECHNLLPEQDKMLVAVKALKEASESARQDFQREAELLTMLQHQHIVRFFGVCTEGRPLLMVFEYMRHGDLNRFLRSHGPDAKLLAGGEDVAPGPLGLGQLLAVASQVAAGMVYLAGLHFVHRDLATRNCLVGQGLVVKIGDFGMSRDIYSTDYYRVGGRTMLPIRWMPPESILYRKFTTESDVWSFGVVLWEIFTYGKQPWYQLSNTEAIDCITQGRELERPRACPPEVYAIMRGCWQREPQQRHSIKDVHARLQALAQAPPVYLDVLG
The assay can be described thus: TrkA Cell Based Phosphorylation Assay. The note with it: Recombinant AD293 cells overexpressing human TrkA; TrkA Y490 phosphorylation upon 6 nM NGF stimulation; Phospho-TrkA (Tyr490) sandwich ELISA. The method, then:
Recombinant AD293 cells overexpressing human TrkA were used to determine TrkA Y490 phosphorylation upon NGF stimulation. 25 k cells plated in serum free DMEM medium in a 96 well plate were serum starved for 2 hours at 37° C. in 5% CO2 incubator. Test compounds were added to the plate at a final concentration of 2.5% DMSO and incubated for 20 min at 37° C. 6 nM NGF was added and incubated for 5 min at 37° C. The plate was immediately centrifuged at 2000 rpm for 1 min and media removed. Lysis buffer containing 1% NP-40 Substitute, 20 mM Tris (pH 8.0), 137 mM NaCl final concentrations was added, mixed for one minute and kept on ice for 15 min with shaking every 5 minutes. 100 ul of the cell lysate was added to the PathScan® Phospho-TrkA (Tyr490) Sandwich ELISA plate with precoated wells and ELISA performed according to the manufacturer's instructions for color development. IC50 was generated in Graph Pad Prism software in non linear regression format.
(ELISA stands for enzyme-linked immunosorbent assay.)
`COCCN1C[C@@H](NC(=O)Nc2cc3ccccc3nc2-c2ccncc2)[C@H](c2ccccc2)C1` [Example 33, 1-((3S,4R)-1-(2-Methoxyethyl)-4-phenylpyrrolidin-3-yl)-3-(2-(pyridin-4-yl)quinolin-3-yl)urea]: the 50% inhibitory concentration (IC50) was greater than 1000 nM.
`COCCN1C[C@@H](NC(=O)Nc2cc3c(OC)cccc3nc2-c2ccccc2)[C@H](c2ccccc2)C1` [Example 16, 1-(5-Methoxy-2-phenylquinolin-3-yl)-3-((3S,4R)-1-(2-methoxyethyl)-4-phenylpyrrolidin-3-yl)urea]: the IC50 was 100 to 1000 nM.
With `COCCN1C[C@@H](NC(=O)Nc2cc3cc(OC)c(OC)cc3nc2-c2ccccc2)[C@H](c2cccc(F)c2)C1` [Example 74, 1-(6,7-Dimethoxy-2-phenylquinolin-3-yl)-3-((3S,4R)-4-(3-fluorophenyl)-1-(2-methoxyethyl)pyrrolidin-3-yl)urea], the IC50 is less than 100 nM.
Turning to `COCCN1C[C@@H](NC(=O)Nc2cc3c(nc2-c2ccccc2)CCCC3)[C@H](c2ccccc2)C1` [Example 125, 1-((3S,4R)-1-(2-Methoxyethyl)-4-phenylpyrrolidin-3-yl)-3-(2-phenyl-5,6,7,8-tetrahydroquinolin-3-yl)urea], the IC50 is less than 100 nM.
For the compound `COCCN1C[C@@H](NC(=O)Nc2cccc3oc4ccccc4c23)[C@H](c2ccccc2)C1` [Example 104, 1-(Dibenzo[b,d]furan-1-yl)-3-((3S,4R)-1-(2-methoxyethyl)-4-phenylpyrrolidin-3-yl)urea], the 50% inhibitory concentration (IC50) fell in the range of 100 to 1000 nM.
Consider `COCCN1C[C@@H](NC(=O)Nc2c(C(C)(C)C)nc(-c3cnn(C)c3)c3ccccc23)[C@H](c2ccccc2)C1` [Example 165, 1-(3-(tert-Butyl)-1-(1-methyl-1H-pyrazol-4-yl)isoquinolin-4-yl)-3-((3S,4R)-1-(2-methoxyethyl)-4-phenylpyrrolidin-3-yl)urea], for which the IC50 is 100 to 1000 nM.
Next, `COCCN1C[C@@H](NC(=O)Nc2c(-c3ccccc3)nc(N3CCOCC3)c3ccccc23)[C@H](c2ccccc2)C1` [Example 172, 1-((3S,4R)-1-(2-Methoxyethyl)-4-phenylpyrrolidin-3-yl)-3-(1-morpholino-3-phenylisoquinolin-4-yl)urea]: less than 100 nM.
Turning to `COCCN1C[C@@H](NC(=O)Nc2c(-c3ccccc3)nc(C(=O)O)c3cc(F)ccc23)[C@H](c2ccccc2)C1` [Example 190, 7-Fluoro-4-(3-(1-(2-methoxyethyl)-4-phenylpyrrolidin-3-yl)ureido)-3-phenylisoquinoline-1-carboxylic acid], the IC50 lay in the range of 100 to 1000 nM.
Regarding `COCCN1C[C@@H](NC(=O)Nc2c(-c3ccccc3)ncc3ccccc23)[C@H](c2ccccc2)C1` [Example 149, 1-((3S,4R)-1-(2-Methoxyethyl)-4-phenylpyrrolidin-3-yl)-3-(3-phenylisoquinolin-4-yl)urea], the IC50 was less than 100 nM.
In the case of `COCCN1C[C@@H](NC(=O)Nc2cc3ccccc3nc2-c2ccccc2)[C@H](c2ccccc2)C1` [Example 2, 1-((3S,4R)-1-(2-methoxyethyl)-4-phenylpyrrolidin-3-yl)-3-(2-phenylquinolin-3-yl)urea], the IC50 is less than 100 nM.

In general, IC50 refers to the concentration needed to halve the response being measured.

(Values after US10336723B2, “Inhibitors of TrkA kinase” (GVK BIOSCIENCES PRIVATE LIMITED, priority 2015, dated 2019).)
